Data published in US20220143222A1, “SUBCUTANEOUS AND INTRAMUSCULAR ADMINISTRATION OF PYRAZINE COMPOUNDS” (MediBeacon Inc., priority 2020, published 2022).

Assay: MB-102 pig plasma concentration after intramuscular dosing
Type: in vivo
Conditions: pig 09801, IM, 3.2 mpk
From the text: Juvenile Yorkshire pigs weighing approximately 25 kg were anesthetized, their body temperature stabilized, and an IV port surgically placed. A region approximately half-way along the line between the hip and knee joint was selected as the injection site and prepared by cleaning the skin and removing any exposed hair by shaving the selected area at least twice. Similarly, the site where two Quantum Leap fluorescent sensors (disclosed in U.S. Pat. No. 10,548,521) were to be positioned (chest) was prepared by washing and shaving. After the skin was dry the sensors were attached with commercially available skin adhesive and background skin auto-fluorescence measurements were recorded. After about 20 minutes of background fluorescence collection the subject animal was dosed either intravenously (animal 48019) or subcutaneously (animals 52771, 53701 09802, or 1539) or intramuscularly (09801) with PBS-1× formulated MB-102 at 3.2 mg/kg. Injection of the appropriate volume took place over about a minute. […] At this point glomerular elimination of MB-102 by the kidneys led to a decrease of fluorescence signal over time. Blood samples (1.5 mL) were taken immediately prior to the introduction of MB-102 (0 minutes) and at 15 minute intervals throughout the procedure. Blood was collected in BD vacutainer K2EDTA tubes, spun to plasma and stored at −80° C. until analyzed. Subsequently, the processed plasma samples were thawed, diluted with PBS-1× and analyzed by HPLC or UPLC and the concentration of MB-102 determined using standard analytical techniques. Further details for each animal are provided in the examples that follow.
Experimental animal Yorkshire pig, 09801, was subject to Intramuscular (IM) administration of MB-102 using substantially the same procedure as Example 8, but substituting a 2 mL syringe equipped with a single 13 mm×27 g needle. […] Blood sampling and processing was as described in Example 8 and the results (Table 1) are plotted in FIG. 6.

concentration at 15 min (Yorkshire, plasma, intramuscular, 3.2 mg/kg, 15 min, read-out: MB-102 Pig Plasma Conc.): 10000 ng/mL
concentration at 30 min (Yorkshire, plasma, intramuscular, 3.2 mg/kg, 30 min, read-out: MB-102 Pig Plasma Conc.): 8130 ng/mL
concentration at 45 min (Yorkshire, plasma, intramuscular, 3.2 mg/kg, 45 min, read-out: MB-102 Pig Plasma Conc.): 6240 ng/mL
concentration at 60 min (Yorkshire, plasma, intramuscular, 3.2 mg/kg, 60 min, read-out: MB-102 Pig Plasma Conc.): 5030 ng/mL
concentration at 75 min (Yorkshire, plasma, intramuscular, 3.2 mg/kg, 75 min, read-out: MB-102 Pig Plasma Conc.): 3920 ng/mL
concentration at 90 min (Yorkshire, plasma, intramuscular, 3.2 mg/kg, 90 min, read-out: MB-102 Pig Plasma Conc.): 3370 ng/mL
concentration at 105 min (Yorkshire, plasma, intramuscular, 3.2 mg/kg, 105 min, read-out: MB-102 Pig Plasma Conc.): 2720 ng/mL
concentration at 120 min (Yorkshire, plasma, intramuscular, 3.2 mg/kg, 120 min, read-out: MB-102 Pig Plasma Conc.): 2130 ng/mL
concentration at 135 min (Yorkshire, plasma, intramuscular, 3.2 mg/kg, 135 min, read-out: MB-102 Pig Plasma Conc.): 1800 ng/mL
concentration at 150 min (Yorkshire, plasma, intramuscular, 3.2 mg/kg, 150 min, read-out: MB-102 Pig Plasma Conc.): 1510 ng/mL
concentration at 165 min (Yorkshire, plasma, intramuscular, 3.2 mg/kg, 165 min, read-out: MB-102 Pig Plasma Conc.): 1340 ng/mL
concentration at 180 min (Yorkshire, plasma, intramuscular, 3.2 mg/kg, 180 min, read-out: MB-102 Pig Plasma Conc.): 1110 ng/mL
concentration at 195 min (Yorkshire, plasma, intramuscular, 3.2 mg/kg, 195 min, read-out: MB-102 Pig Plasma Conc.): 946 ng/mL
concentration at 210 min (Yorkshire, plasma, intramuscular, 3.2 mg/kg, 210 min, read-out: MB-102 Pig Plasma Conc.): 841 ng/mL
concentration at 225 min (Yorkshire, plasma, intramuscular, 3.2 mg/kg, 225 min, read-out: MB-102 Pig Plasma Conc.): 686 ng/mL
concentration at 240 min (Yorkshire, plasma, intramuscular, 3.2 mg/kg, 240 min, read-out: MB-102 Pig Plasma Conc.): 578 ng/mL
concentration at 255 min (Yorkshire, plasma, intramuscular, 3.2 mg/kg, 255 min, read-out: MB-102 Pig Plasma Conc.): 520 ng/mL
concentration at 270 min (Yorkshire, plasma, intramuscular, 3.2 mg/kg, 270 min, read-out: MB-102 Pig Plasma Conc.): 434 ng/mL
concentration at 285 min (Yorkshire, plasma, intramuscular, 3.2 mg/kg, 285 min, read-out: MB-102 Pig Plasma Conc.): 373 ng/mL
concentration at 300 min (Yorkshire, plasma, intramuscular, 3.2 mg/kg, 300 min, read-out: MB-102 Pig Plasma Conc.): 333 ng/mL
concentration at 315 min (Yorkshire, plasma, intramuscular, 3.2 mg/kg, 315 min, read-out: MB-102 Pig Plasma Conc.): 298 ng/mL
concentration at 330 min (Yorkshire, plasma, intramuscular, 3.2 mg/kg, 330 min, read-out: MB-102 Pig Plasma Conc.): 261 ng/mL
concentration at 345 min (Yorkshire, plasma, intramuscular, 3.2 mg/kg, 345 min, read-out: MB-102 Pig Plasma Conc.): 222 ng/mL
concentration at 360 min (Yorkshire, plasma, intramuscular, 3.2 mg/kg, 360 min, read-out: MB-102 Pig Plasma Conc.): 203 ng/mL
SUM (plasma conc. over time) (15-360 min): 794,162 ng/mL*min
SMILES: Nc1nc(C(=O)N[C@H](CO)C(=O)O)c(N)nc1C(=O)N[C@H](CO)C(=O)O [MB-102, 3,6-diamino-2,5-bis{N-[(1R)-1-carboxy-2-hydroxyethyl]carbamoyl}pyrazine]
